Assay results from patent US20060069132A1, “Azolecarboxamide herbicides” (priority 2004, published 2006).

Tests used:
Assay in all cases: Test E pre-/postemergence herbicide test
[1] = tested on: annual bluegrass; format: in vivo, Poa annua
Procedure, shortened: (§1)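 Test chemicals in a non-phytotoxic solvent mixture with surfactant applied preemergence to planted seeds and postemergence to plants 2 to 18 cm tall (1- to 4-leaf stage). After 12 to 14 days in the greenhouse, injury rated visually against untreated controls on a 0–100 scale (0 no effect, 100 complete control).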

[2] = tested on: large crabgrass; format: in vivo, Digitaria sanguinalis
Procedure, shortened: as §1

[3] = tested on: pitted morningglory; format: in vivo, Ipomoea lacunosa
Procedure, shortened: as §1

[4] = tested on: broadleaf signalgrass; format: in vivo, Brachiaria platyphylla
Procedure, shortened: as §1

[5] = tested on: quackgrass; format: in vivo, Elytrigia repens
Procedure, shortened: as §1

[6] = tested on: dallisgrass; format: in vivo, Paspalum dilatatum
Procedure, shortened: as §1

[7] = tested on: common purslane; format: in vivo, Portulaca oleracea
Source text: (§2) Seeds of plant species selected from bipinnate beggarticks (Bidens bipinnata L.), hairy beggarticks (Bidens radiata Thuill.), bermudagrass (Cynodon dactylon (L.) Pers.), Surinam grass (Urochloa decumbens (Staph) R. D. Webster, previously named Brachiaria decumbens Stapf), large crabgrass (Digitaria sanguinalis (L.) Scop.), green foxtail (Setaria viridis (L.) P. Beauv.), goosegrass (Eleusine indica (L.) Gaertn.), johnsongrass (Sorghum halepense (L.) Pers.), kochia (Kochia scoparia (L.) Schrad.), pitted morningglory (Ipomoea lacunosa L.), purple nutsedge (Cyperus rotundus L.), common ragweed (Ambrosia elatior L.), mustard (Brassica nigra (L.) W. D. J. Koch), guineagrass (Panicum maximum Jacq.), dallisgrass (Paspalum dilatatum Poir.), barnyardgrass (Echinochloa crus-galli (L). P. Beauv.), southern sandbur (Cenchrus echinatus L.), common sowthistle (Sonchus oleraceous L.), prickly sida (Sida spinosa L.), Italian ryegrass (Lolium multiflorum Lam.), common purslane (Portulaca oleracea L.), broadleaf signalgrass (Brachiaria platyphylla (Griseb.) Nash), common groundsel (Senecio vulgaris L.), common chickweed (Stellaria media (L.) Vill/Cyr.), tropical spiderwort (Commelina benghalensis L.), annual bluegrass (Poa annua L.), downy bromegrass (Bromus tectorum L.), itchgrass (Rottboellia cochinchinensis (L.) L.f.), quackgrass (Elytrigia repens (L.) Nevski), Canada horseweed (Erigeron Canadensis L.), field bindweed (Convolvulus arvensis L.), spotted spurge (Euphorbia maculata L.), common mallow (Malva sylvestris (=s silvestris) L.), and Russian thistle (Salsola kali L. ssp. Ruthenica (Iljin) Soo) were planted and treated preemergence with test chemicals formulated in a non-phytotoxic solvent mixture which included a surfactant.
(§3) At the same time, plants selected from these weed species were treated with postemergence applications of some of the test chemicals formulated in the same manner. Plants ranged in height from 2 to 18 cm (1- to 4-leaf stage) for postemergence treatments. Treated plants and controls were maintained in a greenhouse for 12 to 14 days, after which time all species were compared to controls and visually evaluated. Plant response ratings, summarized in Table E, are based on a scale of 0 to 100 where 0 is no effect and 100 is complete control. A dash (-) response means no test result.

[8] = tested on: Italian ryegrass; format: in vivo, Lolium multiflorum
Procedure, shortened: as §1

[9] = tested on: common groundsel; format: in vivo, Senecio vulgaris
Source text: as §2, §3

[10] = tested on: Surinam grass; format: in vivo, Urochloa decumbens
Procedure, shortened: as §1

[11] = tested on: johnsongrass; format: in vivo, Sorghum halepense
Procedure, shortened: as §1

[12] = Postemergence, 500 g ai/ha, scale 0 to 100
[13] = Postemergence, 250 g ai/ha, scale 0 to 100
[14] = Preemergence, 62 g ai/ha, scale 0 to 100
[15] = Preemergence, 125 g ai/ha, scale 0 to 100
[16] = Preemergence, 250 g ai/ha, scale 0 (no effect) to 100 (complete control)
[17] = Preemergence, 500 g ai/ha, scale 0 (no effect) to 100 (complete control)
[18] = postemergence, 125 g ai/ha, scale 0 to 100
[19] = postemergence, 62 g ai/ha, scale 0 to 100

## CCn1nc(C(C)(C)C)cc1C(=O)Nc1cc(C(=O)N(C)C)ccn1 [Compound 156, 2-[[[3-(1,1-dimethylethyl)-1-ethyl-1H-pyrazol-5-yl]carbonyl]amino]-N,N-dimethyl-4-pyridinecarboxamide]
[1]; [12]
  Plant response rating, Bluegrass: 98
[1]; [13]
  Plant response rating, Bluegrass: 98
[1]; [14]
  Plant response rating, Bluegrass: 95
[1]; [15]
  Plant response rating, Bluegrass: 95
[1]; [16]
  Plant response rating, Bluegrass: 100
[1]; [17]
  Plant response rating, Bluegrass: 100
[1]; [18]
  Plant response rating, Bluegrass: 95
[1]; [19]
  Plant response rating, Bluegrass: 90
[2]; [12]
  Plant response rating, Crabgrass, Large: 98
[2]; [13]
  Plant response rating, Crabgrass, Large: 95
[2]; [15]
  Plant response rating, Crabgrass, Large: 90
[2]; [16]
  Plant response rating, Crabgrass, Large: 95
[2]; [17]
  Plant response rating, Crabgrass, Large: 95
[2]; [18]
  Plant response rating, Crabgrass, Large: 80
[2]; [19]
  Plant response rating, Crabgrass, Large: 35
[3]; [12]
  Plant response rating, Morningglory: 90
[3]; [13]
  Plant response rating, Morningglory: 80
[3]; [14]
  Plant response rating, Morningglory: 30
[3]; [15]
  Plant response rating, Morningglory: 100
[3]; [16]
  Plant response rating, Morningglory: 100
[3]; [17]
  Plant response rating, Morningglory: 100
[3]; [18]
  Plant response rating, Morningglory: 65
[3]; [19]
  Plant response rating, Morningglory: 10
[4]; [12]
  Plant response rating, Signalgrass: 98
[4]; [13]
  Plant response rating, Signalgrass: 95
[4]; [14]
  Plant response rating, Signalgrass: 85
[4]; [16]
  Plant response rating, Signalgrass: 90
[4]; [17]
  Plant response rating, Signalgrass: 95
[4]; [18]
  Plant response rating, Signalgrass: 85
[4]; [19]
  Plant response rating, Signalgrass: 40
[5]; [12]
  Plant response rating, Quackgrass: 98
[5]; [13]
  Plant response rating, Quackgrass: 95
[5]; [14]
  Plant response rating, Quackgrass: 50
[5]; [15]
  Plant response rating, Quackgrass: 90
[5]; [16]
  Plant response rating, Quackgrass: 95
[5]; [17]
  Plant response rating, Quackgrass: 100
[5]; [18]
  Plant response rating, Quackgrass: 95
[5]; [19]
  Plant response rating, Quackgrass: 75
[6]; [12]
  Plant response rating, Dallisgrass: 90
[6]; [13]
  Plant response rating, Dallisgrass: 90
[6]; [14]
  Plant response rating, Dallisgrass: 90
[6]; [15]
  Plant response rating, Dallisgrass: 95
[6]; [16]
  Plant response rating, Dallisgrass: 100
[6]; [17]
  Plant response rating, Dallisgrass: 100
[6]; [18]
  Plant response rating, Dallisgrass: 85
[6]; [19]
  Plant response rating, Dallisgrass: 75
[7]; [12]
  Plant response rating, Purslane: 100
[7]; [13]
  Plant response rating, Purslane: 100
[7]; [14]
  Plant response rating, Purslane: 100
[7]; [15]
  Plant response rating, Purslane: 100
[7]; [16]
  Plant response rating, Purslane: 100
[7]; [17]
  Plant response rating, Purslane: 100
[7]; [18]
  Plant response rating, Purslane: 100
[7]; [19]
  Plant response rating, Purslane: 75
[8]; [12]
  Plant response rating, Ryegrass, Italian: 98
[8]; [13]
  Plant response rating, Ryegrass, Italian: 98
[8]; [14]
  Plant response rating, Ryegrass, Italian: 60
[8]; [15]
  Plant response rating, Ryegrass, Italian: 95
[8]; [16]
  Plant response rating, Ryegrass, Italian: 100
[8]; [17]
  Plant response rating, Ryegrass, Italian: 100
[8]; [18]
  Plant response rating, Ryegrass, Italian: 95
[8]; [19]
  Plant response rating, Ryegrass, Italian: 90
[9]; [12]
  Plant response rating, Groundsel: 100
[9]; [13]
  Plant response rating, Groundsel: 100
[9]; [14]
  Plant response rating, Groundsel: 100
[9]; [15]
  Plant response rating, Groundsel: 100
[9]; [16]
  Plant response rating, Groundsel: 100
[9]; [17]
  Plant response rating, Groundsel: 100
[9]; [18]
  Plant response rating, Groundsel: 100
[9]; [19]
  Plant response rating, Groundsel: 80
[10]; [12]
  Plant response rating, Surinam Grass: 100
[10]; [13]
  Plant response rating, Surinam Grass: 98
[10]; [14]
  Plant response rating, Surinam Grass: 50
[10]; [15]
  Plant response rating, Surinam Grass: 75
[10]; [17]
  Plant response rating, Surinam Grass: 95
[10]; [18]
  Plant response rating, Surinam Grass: 95
[10]; [19]
  Plant response rating, Surinam Grass: 80
[11]; [12]
  Plant response rating, Johnsongrass: 100
[11]; [13]
  Plant response rating, Johnsongrass: 100
[11]; [14]
  Plant response rating, Johnsongrass: 95
[11]; [15]
  Plant response rating, Johnsongrass: 100
[11]; [16]
  Plant response rating, Johnsongrass: 100
[11]; [17]
  Plant response rating, Johnsongrass: 100
[11]; [18]
  Plant response rating, Johnsongrass: 95
[11]; [19]
  Plant response rating, Johnsongrass: 85

## CCNC(=O)c1ccc(F)c(NC(=O)c2cn(C(C)(C)C)nc2CC)c1 [Compound 193]
[1]; [12]
  Plant response rating, Bluegrass: 85
[1]; [13]
  Plant response rating, Bluegrass: 70
[1]; [14]
  Plant response rating, Bluegrass: 80
[1]; [15]
  Plant response rating, Bluegrass: 100
[1]; [16]
  Plant response rating, Bluegrass: 100
[1]; [17]
  Plant response rating, Bluegrass: 100
[1]; [18]
  Plant response rating, Bluegrass: 50
[1]; [19]
  Plant response rating, Bluegrass: 20
[2]; [12]
  Plant response rating, Crabgrass, Large: 100
[2]; [13]
  Plant response rating, Crabgrass, Large: 100
[2]; [14]
  Plant response rating, Crabgrass, Large: 60
[2]; [15]
  Plant response rating, Crabgrass, Large: 80
[2]; [16]
  Plant response rating, Crabgrass, Large: 100
[2]; [17]
  Plant response rating, Crabgrass, Large: 100
[2]; [18]
  Plant response rating, Crabgrass, Large: 80
[2]; [19]
  Plant response rating, Crabgrass, Large: 10
[3]; [12]
  Plant response rating, Morningglory: 75
[3]; [13]
  Plant response rating, Morningglory: 60
[3]; [14]
  Plant response rating, Morningglory: 0
[3]; [15]
  Plant response rating, Morningglory: 20
[3]; [16]
  Plant response rating, Morningglory: 50
[3]; [17]
  Plant response rating, Morningglory: 70
[3]; [18]
  Plant response rating, Morningglory: 60
[3]; [19]
  Plant response rating, Morningglory: 30
[4]; [12]
  Plant response rating, Signalgrass: 80
[4]; [13]
  Plant response rating, Signalgrass: 75
[4]; [14]
  Plant response rating, Signalgrass: 10
[4]; [15]
  Plant response rating, Signalgrass: 60
[4]; [16]
  Plant response rating, Signalgrass: 70
[4]; [17]
  Plant response rating, Signalgrass: 95
[4]; [18]
  Plant response rating, Signalgrass: 50
[4]; [19]
  Plant response rating, Signalgrass: 10
[5]; [12]
  Plant response rating, Quackgrass: 80
[5]; [13]
  Plant response rating, Quackgrass: 80
[5]; [14]
  Plant response rating, Quackgrass: 10
[5]; [15]
  Plant response rating, Quackgrass: 60
[5]; [16]
  Plant response rating, Quackgrass: 70
[5]; [17]
  Plant response rating, Quackgrass: 95
[5]; [18]
  Plant response rating, Quackgrass: 70
[5]; [19]
  Plant response rating, Quackgrass: 0
[6]; [12]
  Plant response rating, Dallisgrass: 90
[6]; [13]
  Plant response rating, Dallisgrass: 90
[6]; [14]
  Plant response rating, Dallisgrass: 40
[6]; [15]
  Plant response rating, Dallisgrass: 95
[6]; [16]
  Plant response rating, Dallisgrass: 95
[6]; [17]
  Plant response rating, Dallisgrass: 100
[6]; [18]
  Plant response rating, Dallisgrass: 40
[6]; [19]
  Plant response rating, Dallisgrass: 10
[7]; [12]
  Plant response rating, Purslane: 85
[7]; [13]
  Plant response rating, Purslane: 60
[7]; [15]
  Plant response rating, Purslane: 60
[7]; [16]
  Plant response rating, Purslane: 100
[7]; [17]
  Plant response rating, Purslane: 100
[7]; [18]
  Plant response rating, Purslane: 60
[7]; [19]
  Plant response rating, Purslane: 20
[8]; [12]
  Plant response rating, Ryegrass, Italian: 95
[8]; [13]
  Plant response rating, Ryegrass, Italian: 95
[8]; [14]
  Plant response rating, Ryegrass, Italian: 20
[8]; [15]
  Plant response rating, Ryegrass, Italian: 90
[8]; [16]
  Plant response rating, Ryegrass, Italian: 100
[8]; [17]
  Plant response rating, Ryegrass, Italian: 100
[8]; [18]
  Plant response rating, Ryegrass, Italian: 60
[8]; [19]
  Plant response rating, Ryegrass, Italian: 30
[9]; [12]
  Plant response rating, Groundsel: 100
[9]; [13]
  Plant response rating, Groundsel: 70
[9]; [14]
  Plant response rating, Groundsel: 20
[9]; [15]
  Plant response rating, Groundsel: 100
[9]; [16]
  Plant response rating, Groundsel: 100
[9]; [17]
  Plant response rating, Groundsel: 100
[9]; [18]
  Plant response rating, Groundsel: 40
[9]; [19]
  Plant response rating, Groundsel: 20
[10]; [12]
  Plant response rating, Surinam Grass: 90
[10]; [13]
  Plant response rating, Surinam Grass: 85
[10]; [15]
  Plant response rating, Surinam Grass: 80
[10]; [17]
  Plant response rating, Surinam Grass: 100
[10]; [18]
  Plant response rating, Surinam Grass: 70
[10]; [19]
  Plant response rating, Surinam Grass: 10
[11]; [12]
  Plant response rating, Johnsongrass: 80
[11]; [13]
  Plant response rating, Johnsongrass: 70
[11]; [14]
  Plant response rating, Johnsongrass: 20
[11]; [15]
  Plant response rating, Johnsongrass: 75
[11]; [16]
  Plant response rating, Johnsongrass: 85
[11]; [17]
  Plant response rating, Johnsongrass: 95
[11]; [18]
  Plant response rating, Johnsongrass: 70
[11]; [19]
  Plant response rating, Johnsongrass: 40
